From patent publication US9173878B2, “Brain function improving agent” (Tohoku University, priority 2012, dated 2015)
Counter-ions that a name gives are not always drawn.

Legend:
Alzheimer's disease = conditions: treating Alzheimer's disease; cited from earlier work
CaMKII [1] = assay: CaMKII self-phosphorylation (activation) in hippocampus CA1 region, immunoblot; assay type: cell-based, mouse; conditions: hippocampus CA1 region 60 minutes after LTP, 100 pM
Experimental: The brain of a male mouse C57BL/6 (10-12 weeks old) was sagitally sectioned, then a coronal section brain slice (400 μm) including a hippocampus CA1 region was prepared. The hippocampus slice was recovered in an artificial cerebrospinal fluid (126 mM NaCl, 5 mM KCl, 26 mM NaHCO3, 1.3 mM MgSO4-7H2O, 1.26 mM KH2PO4, 2.4 mM CaCl2-2H2O, 10 mM glucose) saturated by a 95% O2/5% CO2 gas at 34° C. for 2 hours. The hippocampus slice was transferred to a measurement chamber, and ST101 (100 pM), SAK1 (100 pM), SAK3 (100 pM) were added to the artificial cerebrospinal fluid, and perfused. Then, the Schaffer branch to be input to the hippocampus CA1 region and the commissural fibers were stimulated by stimulus electrodes, and the postsynaptic potential (fEPSP; field excitatory postsynaptic potential) in the CA1 region induced thereby was measured. […]
The above frozen mouse brain slice segment (hippocampus CA1 region) is used for homogenization on ice by adding 150 μL homogenizing buffer (50 mM Tris-HCl pH 7.5, 0.5% Triton X-100, 4 mM EGTA, 0.5 M NaCl, 10 mM EDTA, 1 mM Na3VO4, 30 mM sodium pyrophosphate, 50 mM NaF, 1 mM DTT, 100 nM calyculin A, 50 μg/mL leupeptin, 25 μg/mL pepstatin A, 50 μg/mL trypsin inhibitor) per sample. […] The protein concentration was measured by the Bradford method using a part of the supernatant. […]

[2] = test system: mouse hippocampus CA1 region; assay: Long-term potentiation of synaptic transmission (LTP), fEPSP in hippocampus slice; assay type: cell-based; conditions: 100 pM in artificial cerebrospinal fluid
Experimental: The brain of a male mouse C57BL/6 (10-12 weeks old) was sagitally sectioned, then a coronal section brain slice (400 μm) including a hippocampus CA1 region was prepared. The hippocampus slice was recovered in an artificial cerebrospinal fluid (126 mM NaCl, 5 mM KCl, 26 mM NaHCO3, 1.3 mM MgSO4-7H2O, 1.26 mM KH2PO4, 2.4 mM CaCl2-2H2O, 10 mM glucose) saturated by a 95% O2/5% CO2 gas at 34° C. for 2 hours. The hippocampus slice was transferred to a measurement chamber, and ST101 (100 pM), SAK1 (100 pM), SAK3 (100 pM) were added to the artificial cerebrospinal fluid, and perfused. Then, the Schaffer branch to be input to the hippocampus CA1 region and the commissural fibers were stimulated by stimulus electrodes, and the postsynaptic potential (fEPSP; field excitatory postsynaptic potential) in the CA1 region induced thereby was measured. After measurement, just the hippocampus CA1 region was sliced from the slice segment, and frozen for preservation at −80° C. for measurement with immunoblotting.

[3] = test system: olfactolectomy mouse (OBX mouse); assay: Y maze test in olfactolectomized (OBX) mouse; assay type: in vivo; conditions: 1 mg/kg administered into the abdominal, 30 minutes before test
Experimental: (§1) A 10 weeks old DDY male mouse (Nippon SLC, Hamamatsu, Japan) was used in the experiment. The animal was bred in an animal experiment facility in the Pharmaceutical Research Department of the Tohoku University Graduate School under a certain condition (temperature 22±2° C., 12 h: 12 h light-dark cycle) by freely providing water and a feed. Note that the handling of animals and animal experiments in the present paper was performed with an approval of Tohoku University Experimental Animal Committee and under the Tohoku University Animal Experiment Guideline.
(§2) An olfactolectomy mouse (OBX mouse) was prepared using a DDY male mouse. The olfactolectomy operation was performed under the condition of anesthesia by pentobarbital sodium (50 mg/kg i.p.; Dainippon, Osaka, Japan). […]
Y maze test: A Y maze test was performed to assess the spontaneous action amount and the spatial activity memory of a mouse. The mouse was place at the end of one of the arms in the Y maze and allowed to freely explore the maze for 8 minutes, then the positions of the arms that the mouse travelled were recorded in the order of selection. The number of times that the mouse travelled to each arm in the time of measurement was counted as total arm entries. Further, the combinations of consecutively selecting 3 different arms were counted as No. of alternation. […]

CaMKII [4] = assay: CaMKII self-phosphorylation (activation) in cultured mouse cerebral cortex cell, immunoblot; assay type: cell-based; conditions: 100 pM, 30 minutes of incubation
Experimental: The above frozen mouse brain slice segment (hippocampus CA1 region) is used for homogenization on ice by adding 150 μL homogenizing buffer (50 mM Tris-HCl pH 7.5, 0.5% Triton X-100, 4 mM EGTA, 0.5 M NaCl, 10 mM EDTA, 1 mM Na3VO4, 30 mM sodium pyrophosphate, 50 mM NaF, 1 mM DTT, 100 nM calyculin A, 50 μg/mL leupeptin, 25 μg/mL pepstatin A, 50 μg/mL trypsin inhibitor) per sample. Then, centrifugation was performed using a refrigerated centrifuge (14,000×g, 10 minutes, 4° C.), after which 100 μL of supernatant was collected and 20 μL of 6× Laemmli buffer was added to the supernatant to be boiled at 100° C. for 3 minutes, to form an immunoblotting sample. The protein concentration was measured by the Bradford method using a part of the supernatant. Reagants containing the same amount of protein were added to 10% SDS-polyacrylamido electrophoresis gel (SDS-PAGE gel), and SDS-PAGE was performed at 80 mA per 1 sheet of gel for 180 minutes. After separation by electrophoresis, transcription to a PVDF membrane was performed at 70 V for 120 minutes. […] After washing with a TTBS solution, ECL detection system (GE healthcare) was used to induce luminescence of HRP that labels the second antibody, and the X-ray film (Fuji Medical X-ray Film, Fuji Film) was sensitized to detect the band. An NIH image analysis software was used for a quantification analysis of the immunoreaction product.
The dispersion cultivation of a mouse cerebral cortex cell was performed by a previously reported method (Fukunaga et al., J. Biol. Chem. 267, 22527-22533, 1992). […] The frozen cerebral cortex cells were subjected to quantification analysis of the activation state (self-phosphorylation reaction) of CaMKII by the immunoblotting method after homogenization, similarly to the method in Test Example 2.

[5] = test system: non-transfected mouse neuroblastoma cell line Neuro2A; assay: Calcium imaging (Fura-2) in T-type calcium channel non-expressing Neuro2A cells; assay type: cell-based
Experimental: (§3) The cells of mouse neuroblastoma cell line Neuro2A were purchased from the Human Science Research Resources Bank (#IFO50081, Osaka, Japan). […] Then, the Neuro2A cells were seeded to a glass bottom dish at a concentration of 1 to 2×10^6 cell/φ35-mm dish, and cultivated for 24 hours in a standard culture medium, and the cells were transfected using Lipofectamine 2000 (Invitrogen, Carsbad, Calif., USA) and using a plasmid vector containing a T-type calcium channel (Cav 3.1) genes (serum-free culture of Lipofectamine 2000: DNA=1 μl: 1 μg, 1.5 ml). The T-type calcium channel (Cav 3.1) gene, the plasmid vector pCMV-SPORT6, and the Lipofectamine 2000 were respectively purchased from OriGene Technologies, Inc., Thermo Fisher Scientific Ltd., and Invitrogen, and the transfection was performed according to the protocol attached to Lipofectamine 2000 other than the rate adjustment of the Lipofectamine 2000 and plasmid vector. The serum-free culture was replaced with a standard culture 6 hours after transfect, and calcium imaging (calcium concentration measurement) was performed after Cav 3.1 expression was confirmed after 48 hours of culture. T-type calcium channel expressing Neuor2A cells were dispersed in a glass bottom dish, and 2.5 μM of Fura-2-AM (Sigma, St Louis, Mo., USA) was added to the dish in perfusion (Krebs-Hepes buffer; KRH), then the dish was incubated at 37° C. for 30 minutes. A Fura-2-AM-free KRH was replaced with perfusion, and the Neuro2A cells were stimulized with SAK3 (100 pM) as the intracellular calcium was measured with a fluorescent microscope, then the cells were further stimulized with nicotin (1 μM), ATP (0.1 μM), DHPG (20 μM), as necessary.

[6] = test system: olfactolectomy mouse (OBX mouse); assay: Novel object recognition test in olfactolectomized (OBX) mouse; assay type: in vivo; conditions: 1 mg/kg administered into the abdominal, 30 minutes before test
Experimental: as §1
as §2, with “Japan). The mouse was fixed to a brain brace, and the skull bone above the olfactory bulb was drilled to open a hole of 1 mm diameter.” for “Japan).”
Novel object recognition test: The present test uses a mouse's characteristic of preferring novel objects, and the mouse was allowed to freely explore the device in which 2 objects are placed for 10 minutes (training session). […] The numbers of contacts for the 2 objects in the training session and the trial session were measured. The percentage (%) of the number of contacts of the novel object against the number of total contacts in the trial session was calculated as the Discrimination index.

[7] = biological target: T1, T-type calcium channel (Cav 3.1) (Homo sapiens, UniProt O43497); assay: Calcium imaging (Fura-2) in Cav 3.1 gene-transfected Neuro2A cells; assay type: cell-based, mouse; conditions: for change in calcium concentration after SAK3 addition: Cav3.1 expressing cells
T1 construct: Thermo Fisher Scientific Ltd. (vector pCMV-SPORT6); host or cells: mouse neuroblastoma cell line Neuro2A, transient transfection with Lipofectamine 2000
Experimental: as §3

[8] = test system: olfactolectomy mouse (OBX mouse); assay: Acetylcholine liberation in hippocampus by microdialysis; assay type: in vivo
Experimental: The amount of acetylcholine liberated in hippocampus is measured by the microdialysis method. The set up of guide cannula and dialysis probe (AG-4; Eicom, Kyoto, Japan) was conducted by fixing the mouse to the brain stereotaxis apparatus under the condition of maintaining anesthesia by 1.5% halothane (Takeda Chemical Industries Ltd., Osaka, Japan), setting up a guide cannula to the left hippocampus (AP=+3. L=+3, V=-1.8), and inserting a dialysis probe to the guide cannula. The collection of a intracerebral Ach sample from a mouse hippocampus was performed a day after the probe set up operation. After the recovery of the mouse from the operation was confirmed, the probe was connected to a micropump (ESP-64; Eicom) under an unanesthetized state and free activity, and a Ringer's solution (1.3 mM CaCl2. 3 mM KCl, 146 mM NaCl and 1 mM MgSO4) was introduced at a flow rate of 2 μL per minute. The dialysis sample was collected every 19.5 minutes and inserted to the acetylcholine separation column using an autoinjector (EAS-20, Eicom), and a system for a trace element analysis of biological samples (HTEC-500; Eicom) was used for analysis. SAK3 was intraperitoneally administered at 40 minutes before test (at the -40 minutes point in the graph of FIG. 8). […]

T1 sequence (O43497 whole entry): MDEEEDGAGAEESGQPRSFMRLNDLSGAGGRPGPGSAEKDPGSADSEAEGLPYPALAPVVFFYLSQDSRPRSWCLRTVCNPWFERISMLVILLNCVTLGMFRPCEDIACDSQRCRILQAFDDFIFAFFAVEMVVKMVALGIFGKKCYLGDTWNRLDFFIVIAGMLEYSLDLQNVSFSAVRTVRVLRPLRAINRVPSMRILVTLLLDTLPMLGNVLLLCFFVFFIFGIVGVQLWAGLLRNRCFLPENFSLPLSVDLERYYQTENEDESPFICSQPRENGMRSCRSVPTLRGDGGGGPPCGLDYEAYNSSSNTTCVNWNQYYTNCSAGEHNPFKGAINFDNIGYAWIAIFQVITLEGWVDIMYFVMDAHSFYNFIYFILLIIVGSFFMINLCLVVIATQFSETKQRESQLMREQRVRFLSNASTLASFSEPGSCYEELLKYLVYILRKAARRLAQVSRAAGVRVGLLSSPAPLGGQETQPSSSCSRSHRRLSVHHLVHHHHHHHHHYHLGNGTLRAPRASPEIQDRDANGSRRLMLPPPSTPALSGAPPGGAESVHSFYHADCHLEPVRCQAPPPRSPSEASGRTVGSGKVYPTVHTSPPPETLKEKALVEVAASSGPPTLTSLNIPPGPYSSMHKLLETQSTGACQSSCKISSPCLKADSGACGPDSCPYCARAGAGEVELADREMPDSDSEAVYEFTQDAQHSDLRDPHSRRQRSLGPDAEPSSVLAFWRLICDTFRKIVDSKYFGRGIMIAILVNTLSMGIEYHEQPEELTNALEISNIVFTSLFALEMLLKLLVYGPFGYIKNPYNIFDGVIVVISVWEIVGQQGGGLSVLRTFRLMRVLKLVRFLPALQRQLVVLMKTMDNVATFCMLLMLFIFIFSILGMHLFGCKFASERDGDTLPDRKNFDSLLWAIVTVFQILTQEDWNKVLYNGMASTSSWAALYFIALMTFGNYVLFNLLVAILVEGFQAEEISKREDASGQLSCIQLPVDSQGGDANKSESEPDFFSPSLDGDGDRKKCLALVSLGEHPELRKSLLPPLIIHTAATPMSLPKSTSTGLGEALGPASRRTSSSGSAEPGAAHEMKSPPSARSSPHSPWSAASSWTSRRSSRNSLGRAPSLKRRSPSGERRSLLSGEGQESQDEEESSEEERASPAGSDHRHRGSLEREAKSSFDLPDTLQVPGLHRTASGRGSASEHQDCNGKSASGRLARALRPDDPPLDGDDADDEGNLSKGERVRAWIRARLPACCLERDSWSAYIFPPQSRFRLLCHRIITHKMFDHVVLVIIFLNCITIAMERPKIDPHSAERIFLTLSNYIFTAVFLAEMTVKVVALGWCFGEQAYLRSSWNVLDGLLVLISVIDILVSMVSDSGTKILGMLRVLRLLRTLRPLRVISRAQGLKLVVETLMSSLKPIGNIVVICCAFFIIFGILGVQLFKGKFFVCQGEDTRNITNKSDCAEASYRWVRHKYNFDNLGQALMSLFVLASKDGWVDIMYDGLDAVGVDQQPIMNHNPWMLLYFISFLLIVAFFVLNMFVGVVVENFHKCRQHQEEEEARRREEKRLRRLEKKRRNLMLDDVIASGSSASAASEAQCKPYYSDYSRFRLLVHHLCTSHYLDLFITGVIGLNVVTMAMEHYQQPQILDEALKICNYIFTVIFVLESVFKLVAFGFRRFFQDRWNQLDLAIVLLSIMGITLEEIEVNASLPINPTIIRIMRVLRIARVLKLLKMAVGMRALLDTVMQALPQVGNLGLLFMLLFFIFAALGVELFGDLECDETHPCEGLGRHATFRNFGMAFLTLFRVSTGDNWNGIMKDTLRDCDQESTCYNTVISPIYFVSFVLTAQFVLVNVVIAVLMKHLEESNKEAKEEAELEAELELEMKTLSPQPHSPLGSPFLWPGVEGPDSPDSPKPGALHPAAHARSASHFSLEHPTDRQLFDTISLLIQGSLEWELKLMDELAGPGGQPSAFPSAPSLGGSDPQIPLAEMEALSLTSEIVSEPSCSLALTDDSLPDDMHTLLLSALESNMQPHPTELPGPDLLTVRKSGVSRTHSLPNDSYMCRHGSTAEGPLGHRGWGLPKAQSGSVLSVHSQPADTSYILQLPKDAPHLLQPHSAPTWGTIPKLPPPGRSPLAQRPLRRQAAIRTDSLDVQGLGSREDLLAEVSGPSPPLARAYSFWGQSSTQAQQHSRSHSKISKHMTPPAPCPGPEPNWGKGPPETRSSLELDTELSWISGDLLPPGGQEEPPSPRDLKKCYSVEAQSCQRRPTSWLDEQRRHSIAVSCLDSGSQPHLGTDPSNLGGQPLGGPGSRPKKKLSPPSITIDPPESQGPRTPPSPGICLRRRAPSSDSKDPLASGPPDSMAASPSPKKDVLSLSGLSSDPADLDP

With `COc1cc2c(cc1OC)C(=O)C(CC1CCN(Cc3ccccc3)CC1)C2` (stereo not shown) [Donepezil hydrochloride] as the molecule, how does the “efficacy ratio of the clinical result” value (Alzheimer's disease) read?
The value was “about 50%”.

Which results are given for `CCOC(=O)C1=C(SC)C2(CC1=O)C(=O)N=C1C=CC=CN12` (stereo not shown) [SAK1]?
phosphorylated CaMKII / CaMKII activation (CaMKII [1]): an increase of phosphorylated CaMKII and a potentiation of CaMKII activation were confirmed; LTP potentiation effect [2]: a strong potentiation effect was observed

Which “improvement of cognitive dysfunction by olfactolectomy (Y maze test)” value [3] does the source give for `CCOC(=O)C1=C(N2CCCCC2)C2(CC1=O)C(=O)N=C1C(C)=CC=CN12` (stereo not shown) [SAK3] here?
The value was “almost completely improved”.

And the “phosphorylated CaMKII / activation of CaMKII” value (CaMKII [4])?
The value was “increased phosphorylated CaMKII”.

What about the “change in calcium concentration after SAK3 addition” value ([5]; Cav3.1 non-expressing cell, SAK3 100 pM) of the same molecule?
The value was “there was no change in the calcium concentration”.

And the “amount of intracellular influent calcium ion induced by SAK3” value ([5]; Cav3.1 non-transfected cells, SAK3 100 pM)?
Its value is “do not show the change in the amount of influent calcium ion”.

What about the “improvement of cognitive dysfunction by olfactolectomy (novel object recognition test)” value [6] of the same molecule?
The value was “almost completely improved”.

What about the “phosphorylated CaMKII / CaMKII activation” value (CaMKII [1]) of the same molecule?
The value was “an increase of phosphorylated CaMKII and a potentiation of CaMKII activation were confirmed”.

What about the “amount of influent calcium ion induced by adding ATP” value ([7]; ATP 0.1 μM, under the presence of SAK3 100 pM, transfected cells) of the same molecule?
The value was “not potentiated”.

And the “change in calcium concentration after SAK3 addition” value ([7]; SAK3 100 pM)?
The value was “An increase in calcium concentration was confirmed”.

And the “change in calcium concentration after SAK3 addition” value ([7]; SAK3 100 pM, mibefradil (10 μM) added)?
Its value is “no increase in calcium concentration by SAK3 was confirmed”.

What about the “amount of intracellular influent calcium ion induced by SAK3” value ([7]; Cav3.1 transfected cells, SAK3 100 pM) of the same molecule?
Its value is “showed an increase in the amount of influent calcium ion”.

And the “increase in amount of influent calcium ion induced by SAK3” value ([7]; Cav3.1 transfected cells, addition of mibefradil (10 μM))?
The value was “nearly cancelled out”.

What about the “amount of influent calcium ion induced by adding DHPG” value ([7]; DHPG 20 μM, under the presence of SAK3 100 pM, transfected cells) of the same molecule?
Its value is “not potentiated”.

What about the “activation of T-type voltage dependent calcium channel relative to ST101” value ([7]; compared with ST101) of the same molecule?
Its value is ≥ 10 folds.

And the “increase of the amount of influent calcium ion induced by nicotin under the presence of SAK3, transfected cells relative to non-transfected cells” value ([7]; nicotin 1 μM, SAK3 100 pM)?
The value was 2 folds.

And the “effect of SAK3 on amount of influent calcium ion induced by nicotin” value ([7]; nicotin 1 μM, mibefradil (10 μM) added)?
Its value is “cancelled out”.

What about the LTP potentiation effect [2] of the same molecule?
Its LTP potentiation effect is “a strong potentiation effect was observed”.

And the “amount of acetylcholine liberated by nicotine in hippocampus” value ([8]; 1.0 mg/kg administration group, compared with Sham group)?
Its value is “above that of the Sham group”.

What about the “amount of acetylcholine liberated by nicotine in hippocampus” value ([8]; intraperitoneal, 40 minutes before test, versus group without SAK3) of the same molecule?
Its value is “increased”.

For `CCOC(=O)C1=C(N2CCCCC2)C2(CC1=O)C(=O)N=C1C=CC=CN12` (stereo not shown) [SAK8], which “phosphorylated CaMKII / activation of CaMKII” value (CaMKII [4]) is on record?
The value was “increased phosphorylated CaMKII”.

With `CCOC(=O)C1=C(N2CCCCC2)C2(CC1=O)C(=O)N=C1C(C)=CC(C)=CN12` (stereo not shown) [SAK9] as the molecule, how does the “phosphorylated CaMKII / activation of CaMKII” value (CaMKII [4]) read?
The value was “increased phosphorylated CaMKII”.

With `O=C1N=C2C=CC=CN2C12Cc1ccccc1C2` [ST101, reference compound] as the molecule, how does the LTP potentiation effect [2] read?
Its LTP potentiation effect is “does not show a strong LTP potentiation effect”.

For `CN1CCCC1c1cccnc1` (stereo not shown) [nicotin, reference compound], which “change in calcium concentration after adding nicotin” value ([5]; Cav3.1 non-expressing cell, nicotin 1 μM) is on record?
The value was “an increase in the calcium concentration after adding nicotin was confirmed”.
